Test results as given in PubChem BioAssay AID1963984 (Molecular Pharmacology Branch, DTP, NCI, 2024).

System: 233499-124-R-J3-PDC spheroids with HUVEC/MSC, viability
Assay: Anticancer human tumor 233499-124-R-J3-PDC patient-derived colon adenocarcinoma cell line growth inhibition [PI3K]
Conditions: for viability, T/C: stronger effect = lower value
In short: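 Complex 3D spheroids (cancer cells + endothelial HUVEC + mesenchymal stem cells); drug pairs of targeted agent x inavolisib/alpelisib/duvelisib/copanlisib; half-log series from ~Cmax, max 10 microM if Cmax unknown; endpoint viability.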

[1] = curve of first compound, second compound 0.0316 µM
[2] = curve of first compound, second compound 0.1 µM
[3] = curve of first compound, second compound 0.316 µM
[4] = curve of first compound, second compound 1 µM
[5] = curve of first compound, second compound 3.16 µM
[6] = curve of first compound, second compound 10 µM
[7] = second compound 0.0316 µM, first compound 0.0316 µM
[8] = second compound 0.0316 µM, first compound 0.1 µM
[9] = second compound 0.1 µM, first compound 0.0316 µM
[10] = second compound 0.1 µM, first compound 0.1 µM
[11] = second compound 0.316 µM, first compound 0.0316 µM
[12] = second compound 0.316 µM, first compound 0.1 µM
[13] = second compound 1 µM, first compound 0.0316 µM
[14] = second compound 1 µM, first compound 0.1 µM
[15] = second compound 3.16 µM, first compound 0.0316 µM
[16] = second compound 3.16 µM, first compound 0.1 µM
[17] = second compound 10 µM, first compound 0.0316 µM
[18] = second compound 10 µM, first compound 0.1 µM
[19] = curve of first compound, second compound 0.00316 µM
[20] = curve of first compound, second compound 0.01 µM
[21] = second compound 0.00316 µM, first compound 0.0316 µM
[22] = second compound 0.00316 µM, first compound 0.1 µM
[23] = second compound 0.00316 µM, first compound 0.316 µM
[24] = second compound 0.00316 µM, first compound 1 µM
[25] = second compound 0.00316 µM, first compound 3.16 µM
[26] = second compound 0.00316 µM, first compound 10 µM
[27] = second compound 0.01 µM, first compound 0.0316 µM
[28] = second compound 0.01 µM, first compound 0.1 µM
[29] = second compound 0.01 µM, first compound 0.316 µM
[30] = second compound 0.01 µM, first compound 1 µM
[31] = second compound 0.01 µM, first compound 3.16 µM
[32] = second compound 0.01 µM, first compound 10 µM
[33] = second compound 0.0316 µM, first compound 0.316 µM
[34] = second compound 0.0316 µM, first compound 1 µM
[35] = second compound 0.0316 µM, first compound 3.16 µM
[36] = second compound 0.0316 µM, first compound 10 µM
[37] = second compound 0.1 µM, first compound 0.316 µM
[38] = second compound 0.1 µM, first compound 1 µM
[39] = second compound 0.1 µM, first compound 3.16 µM
[40] = second compound 0.1 µM, first compound 10 µM
[41] = second compound 0.316 µM, first compound 0.316 µM
[42] = second compound 0.316 µM, first compound 1 µM
[43] = second compound 0.316 µM, first compound 3.16 µM
[44] = second compound 0.316 µM, first compound 10 µM
[45] = second compound 1 µM, first compound 0.316 µM
[46] = second compound 1 µM, first compound 1 µM
[47] = second compound 1 µM, first compound 3.16 µM
[48] = second compound 1 µM, first compound 10 µM
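Note: spheroids exposed to agents for seven days before readout.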
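Throughout, for viability, T/C: percent viability relative to DMSO vehicle control taken as 100%.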

Structure (SMILES): CC(=O)c1c(C)c2cnc(Nc3ccc(N4CCNCC4)cn3)nc2n(C2CCCC2)c1=O + CC(Nc1ncnc2nc[nH]c12)c1cc2cccc(Cl)c2c(=O)n1-c1ccccc1
- IC50 [1]: > 0.1 µM
- IC50 [2]: > 0.1 µM
- IC50 [3]: > 0.1 µM
- IC50 [4]: > 0.1 µM
- IC50 [5]: > 0.1 µM
- IC50 [6]: > 0.1 µM
- viability, T/C (second compound 0.0316 µM, first compound 0.000316 µM): 99%
- viability, T/C (second compound 0.0316 µM, first compound 0.001 µM): 83.9%
- viability, T/C (second compound 0.0316 µM, first compound 0.00316 µM): 93.1%
- viability, T/C (second compound 0.0316 µM, first compound 0.01 µM): 99.5%
- viability, T/C [7]: 101%
- viability, T/C [8]: 89%
- viability, T/C (second compound 0.1 µM, first compound 0.000316 µM): 92.7%
- viability, T/C (second compound 0.1 µM, first compound 0.001 µM): 99.2%
- viability, T/C (second compound 0.1 µM, first compound 0.00316 µM): 93.9%
- viability, T/C (second compound 0.1 µM, first compound 0.01 µM): 115%
- viability, T/C [9]: 101%
- viability, T/C [10]: 82.6%
- viability, T/C (second compound 0.316 µM, first compound 0.000316 µM): 102%
- viability, T/C (second compound 0.316 µM, first compound 0.001 µM): 91.2%
- viability, T/C (second compound 0.316 µM, first compound 0.00316 µM): 93%
- viability, T/C (second compound 0.316 µM, first compound 0.01 µM): 92.2%
- viability, T/C [11]: 86%
- viability, T/C [12]: 77.2%
- viability, T/C (second compound 1 µM, first compound 0.000316 µM): 100%
- viability, T/C (second compound 1 µM, first compound 0.001 µM): 86.9%
- viability, T/C (second compound 1 µM, first compound 0.00316 µM): 78.1%
- viability, T/C (second compound 1 µM, first compound 0.01 µM): 71.5%
- viability, T/C [13]: 76.1%
- viability, T/C [14]: 81.8%
- viability, T/C (second compound 3.16 µM, first compound 0.000316 µM): 106%
- viability, T/C (second compound 3.16 µM, first compound 0.001 µM): 105%
- viability, T/C (second compound 3.16 µM, first compound 0.00316 µM): 94.2%
- viability, T/C (second compound 3.16 µM, first compound 0.01 µM): 83.8%
- viability, T/C [15]: 77.2%
- viability, T/C [16]: 53.4%
- viability, T/C (second compound 10 µM, first compound 0.000316 µM): 86.3%
- viability, T/C (second compound 10 µM, first compound 0.001 µM): 103%
- viability, T/C (second compound 10 µM, first compound 0.00316 µM): 92.9%
- viability, T/C (second compound 10 µM, first compound 0.01 µM): 86.2%
- viability, T/C [17]: 82.4%
- viability, T/C [18]: 68.7%

Structure (SMILES): C#Cc1c(F)ccc2cc(O)cc(-c3ncc4c(N5CC6CCC(C5)N6)nc(OCC56CCCN5CC(F)C6)nc4c3F)c12 (configuration not stated) + CC(Nc1ccc2c(c1)OCCn1cc(N3C(=O)OCC3C(F)F)nc1-2)C(N)=O
- IC50 [19]: > 10 µM
- IC50 [20]: 2.92 µM
- IC50 [1]: > 10 µM
- IC50 [2]: > 10 µM
- IC50 [3]: 5.35 µM
- IC50 [4]: 0.716 µM
- viability, T/C [21]: 83.7%
- viability, T/C [22]: 76%
- viability, T/C [23]: 92%
- viability, T/C [24]: 110%
- viability, T/C [25]: 95.3%
- viability, T/C [26]: 85.5%
- viability, T/C [27]: 99.1%
- viability, T/C [28]: 105%
- viability, T/C [29]: 91.4%
- viability, T/C [30]: 98.7%
- viability, T/C [31]: 46.5%
- viability, T/C [32]: 46%
- viability, T/C [7]: 93.1%
- viability, T/C [8]: 102%
- viability, T/C [33]: 85.4%
- viability, T/C [34]: 85.4%
- viability, T/C [35]: 95.8%
- viability, T/C [36]: 77.4%
- viability, T/C [9]: 99.8%
- viability, T/C [10]: 81%
- viability, T/C [37]: 83.9%
- viability, T/C [38]: 60.2%
- viability, T/C [39]: 70.8%
- viability, T/C [40]: 49.6%
- viability, T/C [11]: 77.2%
- viability, T/C [12]: 78.2%
- viability, T/C [41]: 63.2%
- viability, T/C [42]: 75.1%
- viability, T/C [43]: 59.2%
- viability, T/C [44]: 38%
- viability, T/C [13]: 67.8%
- viability, T/C [14]: 58.6%
- viability, T/C [45]: 58.6%
- viability, T/C [46]: 44%
- viability, T/C [47]: 44.4%
- viability, T/C [48]: 35.2%

Structure (SMILES): CCCS(=O)(=O)Nc1ccc(F)c(C(=O)c2c[nH]c3ncc(-c4ccc(Cl)cc4)cc23)c1F + CC(Nc1ncnc2nc[nH]c12)c1cc2cccc(Cl)c2c(=O)n1-c1ccccc1
- IC50 [1]: 4.97 µM
- IC50 [2]: 5.13 µM
- IC50 [3]: 5.49 µM
- IC50 [4]: 4.61 µM
- IC50 [5]: 4.58 µM
- IC50 [6]: 4.4 µM
- viability, T/C [7]: 80.7%
- viability, T/C [8]: 77.9%
- viability, T/C [33]: 97.8%
- viability, T/C [34]: 98.2%
- viability, T/C [35]: 80%
- viability, T/C [36]: 3.53%
- viability, T/C [9]: 97.1%
- viability, T/C [10]: 100%
- viability, T/C [37]: 90.6%
- viability, T/C [38]: 97.6%
- viability, T/C [39]: 82%
- viability, T/C [40]: 5.89%
- viability, T/C [11]: 81.3%
- viability, T/C [12]: 103%
- viability, T/C [41]: 93.6%
- viability, T/C [42]: 94.6%
- viability, T/C [43]: 93.2%
- viability, T/C [44]: 3.19%
- viability, T/C [13]: 90.3%
- viability, T/C [14]: 99.7%
- viability, T/C [45]: 99.7%
- viability, T/C [46]: 96.5%
- viability, T/C [47]: 71.8%
- viability, T/C [48]: 5.59%
- viability, T/C [15]: 94.7%
- viability, T/C [16]: 99.2%
- viability, T/C (second compound 3.16 µM, first compound 0.316 µM): 90.6%
- viability, T/C (second compound 3.16 µM, first compound 1 µM): 85.7%
- viability, T/C (second compound 3.16 µM, first compound 3.16 µM): 74.3%
- viability, T/C (second compound 3.16 µM, first compound 10 µM): 2.26%
- viability, T/C [17]: 78.5%
- viability, T/C [18]: 92.2%
- viability, T/C (second compound 10 µM, first compound 0.316 µM): 92.1%
- viability, T/C (second compound 10 µM, first compound 1 µM): 74.8%
- viability, T/C (second compound 10 µM, first compound 3.16 µM): 70.6%
- viability, T/C (second compound 10 µM, first compound 10 µM): 3.63%

Structure (SMILES): CC(C)n1nc(-c2ccc3oc(N)nc3c2)c2c(N)ncnc21
- viability, T/C (compound 0.001 µM): 94.8% [middle of 4 runs]
- viability, T/C (compound 0.00316 µM): 89.4% [middle of 4 runs]
- viability, T/C (compound 0.01 µM): 85.9% [middle of 4 runs]
- viability, T/C (compound 0.0316 µM): 82.9% [middle of 4 runs]
- viability, T/C (compound 0.1 µM): 58.7% [middle of 4 runs]
- IC50 (curve of compound): > 0.1 µM

Structure (SMILES): C[C@@H](NC(=O)c1ncnc(N)c1Cl)c1ncc(C(=O)Nc2cc(C(F)(F)F)c(Cl)cn2)s1 + COc1c(OCCCN2CCOCC2)ccc2c3n(c(=NC(=O)c4cnc(N)nc4)nc12)CCN3
- IC50 [19]: > 10 µM
- IC50 [20]: > 10 µM
- IC50 [1]: > 10 µM
- IC50 [2]: > 10 µM
- IC50 [3]: < 0.0316 µM
- IC50 [4]: < 0.0316 µM
- viability, T/C [21]: 97.6%
- viability, T/C [22]: 127%
- viability, T/C [23]: 126%
- viability, T/C [24]: 103%
- viability, T/C [25]: 120%
- viability, T/C [26]: 104%
- viability, T/C [27]: 94.1%
- viability, T/C [28]: 103%
- viability, T/C [29]: 105%
- viability, T/C [30]: 117%
- viability, T/C [31]: 121%
- viability, T/C [32]: 123%
- viability, T/C [7]: 113%
- viability, T/C [8]: 107%
- viability, T/C [33]: 109%
- viability, T/C [34]: 96.1%
- viability, T/C [35]: 107%
- viability, T/C [36]: 106%
- viability, T/C [9]: 85.6%
- viability, T/C [10]: 79.4%
- viability, T/C [37]: 85.5%
- viability, T/C [38]: 69.8%
- viability, T/C [39]: 97.9%
- viability, T/C [40]: 99.3%
- viability, T/C [11]: 44.8%
- viability, T/C [12]: 31.8%
- viability, T/C [41]: 21%
- viability, T/C [42]: 37.7%
- viability, T/C [43]: 45.6%
- viability, T/C [44]: 31.2%
- viability, T/C [13]: 6.68%
- viability, T/C [14]: 10.7%
- viability, T/C [45]: 13.8%
- viability, T/C [46]: 7.94%
- viability, T/C [47]: 20%
- viability, T/C [48]: 1.67%

Structure (SMILES): CC(Nc1ccc2c(c1)OCCn1cc(N3C(=O)OCC3C(F)F)nc1-2)C(N)=O (configuration not stated)
- viability, T/C (compound 0.1 µM): 80.2% [middle of 8 runs]
- viability, T/C (compound 1 µM): 71.6% [middle of 8 runs]
- IC50 (compound alone, run of 05/08/2023): > 1 µM
